# Measured values from patent US9248128B2, “Method for enhancing remyelination using GLI1 inhibitors” (NEW YORK UNIVERSITY, priority 2012, dated 2016).
# How the values were obtained:
# [1] = system: Hh pathway; conditions: Peukert and Miller-Moslin, ChemMedChem 2010; cited from earlier work
# [2] = system: Gli1^het;RCE mice; test: GANT61 infusion into lateral ventricle during cuprizone demyelination/remyelination; GFP-labeled cells in Corpus Callosum by immunofluorescence; type: in vivo, mouse; conditions: n=3
# Method: 10 week old mice were administered 5 mg Tamoxifen (Sigma) in corn oil on alternate days for total of 4 intraperitoneal (i.p.) injections. Gli1^het;RCE, mice, maintained on the Swiss-Webster background, were fed 0.4% cuprizone (Matsushima and Morell, 2001, Brain Pathol., 11:107-116; Elsworth & Howell, Research in Veterinary Science, 14:385-387, 1973). […] For the LPC model, 2 μl 1% LPC (Calbiochem) were stereotaxically injected into the CC at 1.5 mm anterior, 1.2 mm lateral and 2.2 mm ventral to bregma.
# GANT61 (Enzo Life Sciences product #ALX-270-482) (5.6 mg/Kg per day; compound in 50% DMSO and 15% Ethanol in PEG400) or vehicle (50% DMSO+15% Ethanol in PEG400) were delivered via mini-osmotic pump (model 2004, Durect) at a rate of 0.25 μl/h for 4 weeks into the lateral ventricle of Gli^het;RCE mice at 0.5 mm Anterior, 0.75 mm lateral and 2.5 mm ventral to the bregma.
# For Black-Gold (Millipore) staining, mice were perfused with 4% PFA and 20 μm coronal sections were stained according to manufacturer's protocol. For all other analysis, mice were perfused with Prefer (Anatech) and 20 μm coronal sections were stained with X-gal (Ahn & Joyner, Nature, 437:894-897, 2005) or processed for immunofluorescence with rabbit or chicken anti-GFP (1:1,000, Invitrogen) and one of the following antibodies: rat anti-PDGFRα (1:200, BD Biosciences); rabbit anti-NG2 (1:200, Millipore) and β4 spectrin (1:4,000 from M. Rasband); mouse anti-CC1 (1:400, Calbiochem), anti-GFAP (1:400, Sigma), anti-MOG (1:50, Sigma) and guinea pig anti-Caspr (1:3,000 from M. Bhat). Secondary antibodies were goat anti-species conjugated to Alexafluor-488, 594 or -680 (1:1,000, Molecular Probes). Nuclei were counterstained with Hoechst 33258 (1:5,000, Invitrogen). Fluorescent images were obtained as Z-stacks of 1 μm optical sections using a confocal laser-scanning microscope (LSM 510, Zeiss) and processed using Adobe Photoshop. At least 10 sections/mouse were analyzed and data from at least 3 mice were combined to determine the average and standard deviation. Student's t-test was performed to calculate P values.
# To assess whether a strategy of inhibiting Gli1 could potentially be used therapeutically, GANT61, a small molecule inhibitor of Gli1 (Lauth et al., Proc. Natl. Acad. Sci. U.S.A., 104:8455-8460, 2007), was infused into the lateral ventricle of Gli1^het;RCE mice via a mini-osmotic pump. The infusion was started after 4 weeks of cuprizone diet and was continued for an additional 2 weeks on cuprizone and 2 weeks off cuprizone for a total of 4 weeks. Mice were then sacrificed and analyzed (FIG. 4a).
Compound,"selectivity for the Hh pathway over TNF/NFkN signaling, glucocorticoid receptor gene transactivation, and the Ras-Raf-Mek-Mapk cascade [1]","numbers of labeled cells in the CC ([2]; 5.6 mg/Kg per day via mini-osmotic pump for 4 weeks (2 weeks on, 2 weeks off cuprizone), mean±SD, vehicle 6.4±5) [per section]","proportion of differentiated oligodendrocytes among GFP-labeled cells ([2]; 5.6 mg/Kg per day via mini-osmotic pump for 4 weeks, mean±SD, vehicle 21.4±18.7%) [%]","increase in GFP-labeled cells in the CC ([2]; FIG. 4C, versus control infusion) [fold]","percentage of mature oligodendrocytes ([2]; FIG. 4D, versus control infusion, Student's T test)"
c1cc(-c2sc(-c3ccncc3)c(-c3ccncc3)c2-c2ccncc2)ccn1 [GANT58],display selectivity for the Hh pathway,,,,
CN(C)c1ccccc1CN1CCCN(Cc2ccccc2N(C)C)C1c1ccncc1 [GANT61],display selectivity for the Hh pathway,43.8±22.1,65.4±7.5,~7,significant increase
